Results on 46 compounds are retold here after ChEMBL document CHEMBL1125787, “Synthesis and anti-HIV-1 activity of 4,5,6,7-tetrahydro-5-methylimidazo[4,5,1-jk][1,4]benzodiazepin-2(1H)-on e (TIBO) derivatives. 2” (J Med Chem, 1991).

As a reminder, the IC50 is the concentration at which inhibition is half-maximal. Higher therefore signals a need for much substance.

Each structure is given as a SMILES string.

In the experiment the test system is MT4. Briefly: Ability to block replication of HIV-1 virus in MT-4 cells. The note with it: Homo sapiens.
`CC(C)=CCN1Cc2cccc3nc(N(C)C)n(c23)CC1C` (stereo unspecified): the IC50 was over 250 µM.
In turn, `CCCN1Cc2cccc3[nH]c(Cl)c(c23)CC1C` (stereo unspecified) gave an IC50 of over 50 µM.
The figure for `CCC(=CCN1Cc2cc(Cl)cc3nc(S)n(c23)CC1C)CC` (stereo unspecified) is 0.012 µM; for `CC(C)=CCN1Cc2cccc3nc(Sc4ccccc4)n(c23)CC1C` (stereo unspecified) it is over 50 µM; for `CC1CN2c3c(cc(Cl)cc3NS2(=O)=O)CN1CC1CC1` (stereo unspecified) it is over 10 µM.
Turning to `CCCN1Cc2cccc3[nH]c(=O)c(=O)n(c23)CC1C` (stereo unspecified), the IC50 was over 250 µM.
The figure for `CC1CN2C(=O)CNc3cc(Cl)cc(c32)CN1CC1CC1` (stereo unspecified) is over 10 µM; for `C=C(C)CN1Cc2cccc3ncn(c23)CC1C` (stereo unspecified) it is over 2 µM; for `CC1Cn2c(=O)oc3cccc(c32)CN1CC1CCC1` (stereo unspecified) it is over 2 µM.
In turn, `CNc1nc2cccc3c2n1CC(C)N(CC=C(C)C)C3` (stereo unspecified) gave a half-maximal inhibitory concentration (IC50) of over 250 µM.
The figure for `C=CCn1c(=O)n2c3c(cccc31)CN(CCC)C(C)C2` (stereo unspecified) is over 50 µM; for `CCCN1Cc2cccc3c2n(c(=O)n3C)CC1C` (stereo unspecified) it is over 250 µM; for `C/N=C(/S)N1CC(C)N(CC2CC2)Cc2cc(Cl)ccc21` (stereo unspecified) it is over 10 µM.
Next, `CCCN1Cc2cccc3[nH]cc(c23)CC1C` (stereo unspecified): over 250 µM; `C=C(C)CN1Cc2cccc3c2C(CC1C)C(S)=N3` (stereo unspecified): over 10 µM.
The figure for `CC1Cn2c(O)nc3cc(Cl)cc(c32)CN1CC1CCC1` (stereo unspecified) is 0.38 µM.
As to `CCCN1Cc2cccc3c2n(c(=O)n3CC#N)CC1C` (stereo unspecified), the IC50 was over 250 µM.
The figure for `CC1Cn2c(S)nc3cc(Cl)cc(c32)CN1CCC1CC1` (stereo unspecified) is 0.42 µM; for `CC(C)=CCN1Cc2cc(Cl)cc3[nH]c(=O)n(c23)C[C@H]1C` it is 4.2 µM; for `CC(C)=CCN1Cc2cc(Cl)cc3[nH]c(=S)n(c23)C[C@@H]1C` it is 0.039 µM.
The figure for `CCCN1Cc2cccc3c2N(CC1C)C(=O)C3` (stereo unspecified) is over 250 µM.
`CC(C)=CCN1Cc2cc(Cl)cc3nc([SeH])n(c23)CC1C` (stereo unspecified) registered an IC50 of 0.018 µM.
Next, `COC(=O)Nc1nc2cc(Cl)cc3c2n1C[C@@H](C)N(CC=C(C)C)C3`: over 10 µM; `CCC(=CCN1Cc2cc(Cl)cc3nc(O)n(c23)CC1C)CC` (stereo unspecified): 0.029 µM; `C=CCN1Cc2cccc3c2C(CC1C)C(S)=N3` (stereo unspecified): over 250 µM.
The figure for `C=C(C)CN1Cc2cccc3c2C(O)(CC1C)C(=O)N3` (stereo unspecified) is over 250 µM; for `COc1nc2cccc3c2n1CC(C)N(CC=C(C)C)C3` (stereo unspecified) it is over 250 µM; for `CC1Cn2c(O)nc3cc(Cl)cc(c32)CN1CCC1CC1` (stereo unspecified) it is 2.2 µM.
Take `CCCN1Cc2cccc3c2n(c(=O)n3C(C)C)CC1C` (stereo unspecified): the half-inhibitory concentration (IC50) was over 250 µM.
The figure for `CC1Cn2c(S)nc3cc(Cl)cc(c32)CN1CC1CCC1` (stereo unspecified) is 0.026 µM; for `CC1Cn2c(N=C(N)N)nc3cc(Cl)cc(c32)CN1CC1CC1` (stereo unspecified) it is over 50 µM.
With `CC(C)=CCN1Cc2cc(Cl)cc3nc(NC#N)n(c23)CC1C` (stereo unspecified), the IC50 was over 250 µM.
Next, `CC1Cn2c(O)nc3cccc(c32)CN1CC1CC1` (stereo unspecified): 10 µM; `CC(C)=CCN1Cc2cc(Cl)cc3nc(S)n(c23)C[C@H]1C`: 0.39 µM.
The figure for `C=C(C)CN1Cc2cccc3c2C(CC1C)C(=O)N3` (stereo unspecified) is over 50 µM.
`CCCN1Cc2cccc3nnn(c23)CC1C` (stereo unspecified) gave an IC50 of over 10 µM.
Next, `CC(C)=CCN1Cc2cccc3[nH]c(=S)n(c23)C[C@@H]1C`: 0.097 µM; `C=C(C)CN1Cc2cccc3[nH]c(=O)n(c23)CC1C` (stereo unspecified): 15.2 µM; `C=C(C)CN1Cc2cccc3nc(S)n(c23)CC1C` (stereo unspecified): 0.026 µM.
Next, `CCCN1Cc2cccc3[nH]c(=O)n(c23)CC1C` (stereo unspecified): 60 µM.
Turning to `CC(C)=CCN1Cc2cccc3nc(O)n(c23)CC1C` (stereo unspecified), it took 9.8 µM to reach half-maximal inhibition (IC50).
Next, `CC1Cn2c(S)nc3cccc(c32)CN1CC1CC1` (stereo unspecified): 0.06 µM; `CCCN1Cc2cccc3[nH]c(=S)n(c23)CC1C` (stereo unspecified): 1.7 µM; `CC(C)=CCN1Cc2cc(Cl)cc3[nH]c(=O)n(c23)C[C@@H]1C`: 0.18 µM.
Next, `O=c1[nH]cnc2c1ncn2[C@H]1CC[C@@H](CO)O1` [DIDANOSINE]: 5.5 µM.
Next, `Cc1cn([C@H]2C[C@H](N=[N+]=[N-])[C@@H](CO)O2)c(=O)[nH]c1=O` [ZIDOVUDINE]: 0.004 µM.
